Assay results taken from ChEMBL document CHEMBL5620419, “Discovery of new Lenalidomide derivatives as potent and selective GSPT1 degraders” (Eur J Med Chem, 2023).

Target: Protein cereblon/Eukaryotic peptide chain release factor GTP-binding subunit ERF3A (Homo sapiens, UniProt P15170+Q96SW2)
Test: PROTAC activity at CRBN/GSPT1 in human U-937 cells assessed as degradation of GSPT1 measured after 6 hrs by Western blot analysis
Type: cell-based

Chain of Protein cereblon/Eukaryotic peptide chain release factor GTP-binding subunit ERF3A (Q96SW2 whole entry): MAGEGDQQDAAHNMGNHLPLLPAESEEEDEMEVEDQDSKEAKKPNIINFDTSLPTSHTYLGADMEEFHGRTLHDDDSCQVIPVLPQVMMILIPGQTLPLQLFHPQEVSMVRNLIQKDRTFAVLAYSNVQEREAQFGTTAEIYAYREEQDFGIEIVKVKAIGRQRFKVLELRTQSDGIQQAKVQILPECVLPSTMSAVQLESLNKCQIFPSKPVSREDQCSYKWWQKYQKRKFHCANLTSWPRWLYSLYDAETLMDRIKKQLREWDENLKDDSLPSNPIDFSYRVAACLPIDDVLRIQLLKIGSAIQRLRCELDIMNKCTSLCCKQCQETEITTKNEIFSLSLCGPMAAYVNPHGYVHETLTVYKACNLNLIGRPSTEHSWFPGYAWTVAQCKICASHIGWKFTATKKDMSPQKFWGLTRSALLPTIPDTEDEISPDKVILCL
Chain of Protein cereblon/Eukaryotic peptide chain release factor GTP-binding subunit ERF3A (P15170 whole entry): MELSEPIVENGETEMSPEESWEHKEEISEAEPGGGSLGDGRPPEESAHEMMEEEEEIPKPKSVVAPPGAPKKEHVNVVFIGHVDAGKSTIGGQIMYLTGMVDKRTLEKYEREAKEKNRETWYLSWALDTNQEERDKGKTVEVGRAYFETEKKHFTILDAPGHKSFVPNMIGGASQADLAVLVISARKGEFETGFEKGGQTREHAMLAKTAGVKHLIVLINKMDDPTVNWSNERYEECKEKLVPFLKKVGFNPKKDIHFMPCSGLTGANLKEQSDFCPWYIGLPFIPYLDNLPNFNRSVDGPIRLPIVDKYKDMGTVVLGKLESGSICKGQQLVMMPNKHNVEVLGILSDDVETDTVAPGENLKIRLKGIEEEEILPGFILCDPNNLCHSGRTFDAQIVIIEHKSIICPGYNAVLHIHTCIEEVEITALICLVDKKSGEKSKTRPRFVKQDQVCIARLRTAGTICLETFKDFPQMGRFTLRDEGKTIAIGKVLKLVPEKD

| SMILES | EC50 |
| --- | --- |
| Cc1ccc(NC(=O)/C=C/c2ccc3c(c2)C(=O)N(C2CCC(=O)NC2=O)C3)cc1Cl (centres undefined) | > 10000 nM |
| Cc1ccc(NC(=O)CCc2ccc3c(c2)C(=O)N(C2CCC(=O)NC2=O)C3)cc1Cl (centres undefined) | 18 nM |
| Cc1ccc(NC(=O)CNc2ccc3c(c2)C(=O)N(C2CCC(=O)NC2=O)C3)cc1Cl (centres undefined) | > 10000 nM |
| Cc1cc(NC(=O)CCc2ccc3c(c2)C(=O)N(C2CCC(=O)NC2=O)C3)ccc1Cl (centres undefined) | 143 nM |
| Cc1c(Cl)cc(NC(=O)CCc2ccc3c(c2)C(=O)N(C2CCC(=O)NC2=O)C3)cc1CN1CCOCC1 (centres undefined) | 48 nM |
| Cc1cc(NC(=O)C(C)Cc2ccc3c(c2)CN(C2CCC(=O)NC2=O)C3=O)ccc1Cl (centres undefined) | > 10000 nM |
| Cc1ccc(NC(=O)CCc2ccc3c(c2)C(=O)N(C2CCC(=O)NC2=O)C3=O)cc1Cl (centres undefined) | 447 nM |
| Cc1ccc(NC(=O)CC(C)c2ccc3c(c2)C(=O)N(C2CCC(=O)NC2=O)C3)cc1Cl (centres undefined) | > 10000 nM |
| Cc1c(Cl)cc(NC(=O)CCc2ccc3c(c2)C(=O)N(C2CCC(=O)NC2=O)C3)cc1CN1CC(N2CCOCC2)C1 (centres undefined) | 208 nM |
